The test system of assay [1] is Dermcidin. Description: Dermcidin immunofluorescent staining in human microdissected scalp hair follicle organ culture. It counts as cell-based. Conditions: 500 μM, 3 and 5 days, ex vivo. Here is the method:
(§1) Human scalp samples were obtained 1 day after face-lifting procedure (i.e. after overnight transport from collaborating surgeons) and used at the same day for microdissecting human anagen VI scalp HFs. […] Microdissected human scalp HFs were cultured at 37° C. with 5% CO2 in a minimal media of William's E media (WEM, Gibco, Life technologies) supplemented with 2 mM of L-glutamine (Gibco), 10 ng/ml hydrocortisone (Sigma-Aldrich), 10 μg/ml insulin (Sigma-Aldrich) and 1% penicillin/streptomycin mix (Gibco) (WEM). After microdissection, the HFs were first incubated in WEM for 24 hrs for re-equilibration.
(§2) After 24 hours, WEM medium was replaced and HFs were treated with vehicle (0.1% DMSO), sandal pentanol 500 μM, for 3 or 5 days for (immuno-)histology or 6 hours for microarray. Culture medium was replaced every second day and after […], HFs were then embedded in cryomatrix (Fisher Scientific), and snap frozen in liquid nitrogen for (immuno-)histology.
OCT embedded samples were sectioned with a Leica cryostat. Dermicidin protein was detected using tissue sections fixed in 4% paraformaldehyde, pre-incubated with 10% of goat serum, and incubated with a mouse anti-human Dermcidin (Novus Biologicals, G-81, 1:200). Secondary antibody (Goat anti—mouse Alexa fluor 488) incubation was performed at room temperature for 45 min. Counterstaning with DAPI (1 μg/mL) was performed to visualize nuclei.

Assay [2] relates to Dermcidin. Description: Microarray analysis of human microdissected scalp hair follicles. The note with it: sandal pentanol 500 μM, 6 hours, vs vehicle (0.1% DMSO). It counts as cell-based. How it is done: as §1, §2

In the case of `CC1=CCC(CCC(C)C(C)O)C1(C)C` (stereo not drawn) [Sandalore, 3-methyl-5-(2,2,3-trimethylcyclopent-3-en-1-yl)pentan-2-ol], the “Dermcidin protein expression in hair follicle outer root sheath keratinocytes” value in assay [1] was “increased”. Also, in assay [2], the “Dermcidin expression increase (microarray)” value is 77.6 folds and the “transcripts of AMPs genes (microarray)” value is “up-regulated”.

Values taken from patent US20220071921A1, “COMPOUNDS FOR PREVENTING AND TREATING SKIN OR MUCOSAL AFFECTIONS HAVING AN INFLAMMATORY COMPONENT” (GIULIANI S.P.A., priority 2018, published 2022).
